Each structure is given as a SMILES string. Structures can show the parent of a compound that is named as a salt. Where two headings read alike, the source gives them in different places.

In experiment [1] the target is T1, FLT3 (Homo sapiens, UniProt P36888).
T1 construct: made in house
T1 sequence (P36888 27-993): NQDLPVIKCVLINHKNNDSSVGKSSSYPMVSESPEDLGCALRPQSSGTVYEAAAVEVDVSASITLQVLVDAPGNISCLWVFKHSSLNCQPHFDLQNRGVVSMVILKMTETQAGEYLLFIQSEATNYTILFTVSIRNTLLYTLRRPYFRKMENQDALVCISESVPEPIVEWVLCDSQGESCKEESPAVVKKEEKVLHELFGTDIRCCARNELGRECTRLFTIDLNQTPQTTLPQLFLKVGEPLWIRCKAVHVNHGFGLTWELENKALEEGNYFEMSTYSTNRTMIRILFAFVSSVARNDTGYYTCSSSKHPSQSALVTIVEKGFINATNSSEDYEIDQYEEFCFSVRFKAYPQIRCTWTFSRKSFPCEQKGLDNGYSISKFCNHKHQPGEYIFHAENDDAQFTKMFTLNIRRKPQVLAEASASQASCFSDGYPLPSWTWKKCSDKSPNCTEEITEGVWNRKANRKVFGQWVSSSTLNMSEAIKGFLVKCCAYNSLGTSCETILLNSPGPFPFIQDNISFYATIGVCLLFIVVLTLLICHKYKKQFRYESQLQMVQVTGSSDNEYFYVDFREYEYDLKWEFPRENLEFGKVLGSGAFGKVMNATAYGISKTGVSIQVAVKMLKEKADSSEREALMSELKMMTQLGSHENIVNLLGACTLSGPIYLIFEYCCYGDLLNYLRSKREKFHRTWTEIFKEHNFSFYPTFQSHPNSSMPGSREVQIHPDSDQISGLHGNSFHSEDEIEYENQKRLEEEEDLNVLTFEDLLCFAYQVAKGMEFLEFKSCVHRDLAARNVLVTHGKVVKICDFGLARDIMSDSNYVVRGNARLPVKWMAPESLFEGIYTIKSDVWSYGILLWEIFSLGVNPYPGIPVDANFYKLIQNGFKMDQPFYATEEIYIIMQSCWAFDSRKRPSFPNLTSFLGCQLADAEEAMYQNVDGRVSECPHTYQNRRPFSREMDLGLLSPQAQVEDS
Kind of experiment: Binding constant (Kd) measurement, phage-displayed kinase competition binding assay, FLT3. An outline of the steps: (§1)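 Competition binding used human kinases fused to T7 phage and immobilized ATP-site ligands. Compound binding blocks kinase capture on the solid support. Bound phage-kinase was quantified by plaque assay or qPCR of the phage genome to give Kd.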

In experiment [2] the target is T2, CSF1R (Homo sapiens, UniProt P07333).
T2 construct: made in house
Kind of experiment: Binding constant (Kd) measurement, phage-displayed kinase competition binding assay, CSF1R. An outline of the steps: as §1

Experiment [3] addresses T3, KIT (Homo sapiens, UniProt P10721).
T3 construct: made in house
Kind of experiment: Binding constant (Kd) measurement, phage-displayed kinase competition binding assay, KIT. The procedure, abridged: as §1

For experiment [4], the system named is MV4-11 cells. In words: Cellular proliferation assay (MTS), MV4-11. It is filed as cell-based. As to conditions: Homo sapiens. The procedure, abridged:
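FLT3-ITD MV4-11 cells, 10,000/well in DMEM with 0.5% serum, exposed to compounds 3 days at 37 °C, 5% CO2. Viability read colorimetrically after 2 h MTS tetrazolium reduction; WT-FLT3 RS4-11 cells (20,000/well, RPMI 0.5% serum, 2 days) serve as control.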

The mark [5] stands for this setting: read-out: Binding Assay FLT3 Kd.
[6] abbreviates: MV4-11 cells, 72 hour incubation, MTS, read-out: Cellular Assay MV-proliferation IC50.

T3 sequence (P10721 26-976): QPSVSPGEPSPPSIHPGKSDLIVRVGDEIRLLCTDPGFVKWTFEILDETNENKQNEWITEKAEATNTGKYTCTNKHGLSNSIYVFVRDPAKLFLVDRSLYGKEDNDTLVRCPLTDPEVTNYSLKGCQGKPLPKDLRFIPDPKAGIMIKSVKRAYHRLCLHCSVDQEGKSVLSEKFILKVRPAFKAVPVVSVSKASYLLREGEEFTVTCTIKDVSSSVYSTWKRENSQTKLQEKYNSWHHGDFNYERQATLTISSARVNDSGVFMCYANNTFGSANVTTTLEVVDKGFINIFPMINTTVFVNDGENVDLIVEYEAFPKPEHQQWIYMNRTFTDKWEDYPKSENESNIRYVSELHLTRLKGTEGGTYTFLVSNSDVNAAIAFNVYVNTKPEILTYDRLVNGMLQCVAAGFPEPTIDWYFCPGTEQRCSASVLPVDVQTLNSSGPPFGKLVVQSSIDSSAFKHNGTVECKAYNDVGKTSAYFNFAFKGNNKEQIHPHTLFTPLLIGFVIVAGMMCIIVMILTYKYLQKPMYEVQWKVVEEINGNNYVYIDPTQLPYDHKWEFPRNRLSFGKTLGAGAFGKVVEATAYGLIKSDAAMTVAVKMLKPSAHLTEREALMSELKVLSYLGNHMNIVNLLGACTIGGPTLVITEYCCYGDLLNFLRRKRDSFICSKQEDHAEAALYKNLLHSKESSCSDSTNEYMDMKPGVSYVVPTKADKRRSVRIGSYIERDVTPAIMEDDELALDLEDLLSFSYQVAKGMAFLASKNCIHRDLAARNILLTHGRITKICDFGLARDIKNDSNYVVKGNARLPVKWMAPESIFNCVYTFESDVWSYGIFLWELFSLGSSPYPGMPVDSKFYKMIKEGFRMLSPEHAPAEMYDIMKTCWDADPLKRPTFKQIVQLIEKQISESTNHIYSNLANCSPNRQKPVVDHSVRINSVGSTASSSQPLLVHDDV
T2 sequence (P07333 20-972): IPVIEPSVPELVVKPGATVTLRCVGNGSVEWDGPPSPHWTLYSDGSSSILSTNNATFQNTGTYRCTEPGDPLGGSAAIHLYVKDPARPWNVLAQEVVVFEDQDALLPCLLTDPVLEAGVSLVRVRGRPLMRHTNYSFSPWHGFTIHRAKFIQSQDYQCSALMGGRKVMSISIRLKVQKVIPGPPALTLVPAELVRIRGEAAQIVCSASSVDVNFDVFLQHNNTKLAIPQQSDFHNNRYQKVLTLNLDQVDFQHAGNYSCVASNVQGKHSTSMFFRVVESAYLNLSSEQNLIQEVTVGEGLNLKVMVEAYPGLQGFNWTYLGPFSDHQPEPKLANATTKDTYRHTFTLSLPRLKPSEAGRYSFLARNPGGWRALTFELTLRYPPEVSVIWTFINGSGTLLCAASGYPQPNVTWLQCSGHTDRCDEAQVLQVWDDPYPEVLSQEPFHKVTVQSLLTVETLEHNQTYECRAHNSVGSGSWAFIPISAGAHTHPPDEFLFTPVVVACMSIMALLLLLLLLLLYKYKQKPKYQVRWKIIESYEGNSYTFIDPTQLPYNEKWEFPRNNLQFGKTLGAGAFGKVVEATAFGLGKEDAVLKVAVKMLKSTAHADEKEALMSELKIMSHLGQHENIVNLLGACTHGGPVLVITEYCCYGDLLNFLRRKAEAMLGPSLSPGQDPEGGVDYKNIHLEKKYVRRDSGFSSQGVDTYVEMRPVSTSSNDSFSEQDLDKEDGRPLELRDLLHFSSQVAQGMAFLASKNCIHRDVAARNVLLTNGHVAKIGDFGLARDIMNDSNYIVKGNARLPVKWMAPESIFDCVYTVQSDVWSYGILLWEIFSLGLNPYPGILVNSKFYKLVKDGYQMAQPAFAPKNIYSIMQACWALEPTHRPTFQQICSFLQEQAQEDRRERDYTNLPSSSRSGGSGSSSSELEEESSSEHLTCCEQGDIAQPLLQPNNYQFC

In general, Kd refers to a measure of binding affinity in units of concentration. `CC(C)(C)c1cc(NC(=O)Nc2ccc(-c3cn4c(n3)sc3cc(CCC(=O)N5CCOCC5)ccc34)cc2)no1` [Compound C7, N-(5-tert-butyl-isoxazol-3-yl)-N′-{4-[7-(3-morpholino-4-yl-3-oxo-propyl)imidazo[2,1-b][1,3]benzothiazol-2-yl]phenyl}urea]: the Kd is below 10 nM in experiment [1] (setting [5]), 10 to 100 nM in experiment [2] and below 10 nM in experiment [3]. The IC50 in experiment [4] (setting [6]) is below 10 nM.

As to `CN1CCN(C(=O)c2ccc3c(c2)sc2nc(-c4ccc(NC(=O)Nc5cc(C(C)(C)C)on5)cc4)cn23)CC1` [Compound C25, 1-(5-tert-butyl-isoxazol-3-yl)-3-{4-[7-(4-methyl-piperazine-1-carbonyl)-imidazo[2,1-b][1,3]benzothiazol-2-yl]-phenyl}-urea hydrochloride], the equilibrium dissociation constant (Kd) is below 10 nM in experiment [1], 10 to 100 nM in experiment [2] and below 10 nM in experiment [3]. The IC50 in experiment [4] (setting [6]) is below 10 nM.

`CC(C)(C)c1cc(NC(=O)Nc2ccc(-c3cn4c(n3)sc3cc(CCC(=O)O)ccc34)cc2)no1` [Compound C4, 3-{2-[4-({[(5-tert-butylisoxazol-3-yl)amino]carbonyl}amino)phenyl]imidazo[2,1-b][1,3]benzothiazol-7-yl}propanoic acid]: the Kd is below 10 nM in experiment [1] (setting [5]), 10 to 100 nM in experiment [2] and below 10 nM in experiment [3]. Besides, in experiment [4] (setting [6]), the IC50 is below 10 nM.

On to `CC(C)(C)c1cc(NC(=O)Nc2ccc(-c3cn4c(n3)sc3cc(C(=O)NCCN5CCCC5)ccc34)cc2)no1` [Compound C21, 2-{4-[3-(5-tert-butyl-isoxazol-3-yl)-ureido]-phenyl}-imidazo[2,1-b][1,3]benzothiazole-7-carboxylic Acid (2-Pyrrolidin-1-yl-ethyl)-amide hydrochloride], for which the figures for the Kd in experiment [1], in experiment [2] and in experiment [3] were below 10 nM, 10 to 100 nM and below 10 nM, respectively. Besides, in experiment [4] (setting [6]), the IC50 is below 10 nM.

For the compound `CCN(CC)CCNC(=O)CCc1ccc2c(c1)sc1nc(-c3ccc(NC(=O)Nc4cc(C(C)(C)C)on4)cc3)cn12` [Compound C12, 3-(2-{4-[3-(5-tert-butyl-isoxazol-3-yl)-ureido]-phenyl}-benzo[d]imidazo[2,1-b]thiazol-7-yl)-N-(2-diethylamino-ethyl)-propionamide hydrochloride], the Kd was below 10 nM in experiment [1], 10 to 100 nM in experiment [2] and below 10 nM in experiment [3]. Also, the IC50 in experiment [4] (setting [6]) is below 10 nM.

As to `CC(C)(C)c1cc(NC(=O)Nc2ccc(-c3cn4c(n3)sc3cc(CN5CCCCC5)ccc34)cc2)no1` [Compound D10, 1-(5-tert-Butyl-isoxazol-3-yl)-3-[4-(7-piperidin-1-ylmethyl-imidazo[2,1-b][1,3]benzothiazol-2-yl)-phenyl]urea hydrochloride], the Kd in experiment [1] was below 10 nM; in experiment [2], 10 to 100 nM; in experiment [3], below 10 nM. For the same compound, the IC50 in experiment [4] (setting [6]) is below 10 nM.

For the compound `CN(C(=O)Nc1cc(C(C)(C)C)on1)c1ccc(-c2cn3c(n2)sc2cc(CCCN4CCOCC4)ccc23)cc1` [Compound D2, 3-(5-tert-Butyl-isoxazol-3-yl)-1-methyl-1 {4-[7-(3-morpholin-4-yl-propyl)-benzo[d]imidazo[2,1-b]thiazol-2-yl]-phenyl}-urea], the values for the Kd in experiment [1] (setting [5]), in experiment [2] and in experiment [3] were 10 to 100 nM, 10 to 100 nM and below 10 nM, respectively. Moreover, the IC50 in experiment [4] (setting [6]) lay in the range of 10 to 100 nM.

Take `CC(C)(C)c1cc(NC(=O)Nc2ccc(-c3cn4c(n3)sc3cc(C(=O)O)ccc34)cc2)no1` [Compound C27, Sodium 2-{4-[3-(5-tert-butyl-isoxazol-3-yl)-ureido]-phenyl}-benzo[d]imidazo[2,1-b]thiazole-7-carboxylate]: the Kd in experiment [1] (setting [5]) is below 10 nM; in experiment [2] it was 10 to 100 nM; in experiment [3], below 10 nM. In addition, the IC50 in experiment [4] (setting [6]) was below 10 nM.

Take `CCN1CCN(C(=O)c2ccc3c(c2)sc2nc(-c4ccc(NC(=O)Nc5cc(C(C)(C)C)on5)cc4)cn23)CC1` [Compound C23, 1-(5-tert-butyl-isoxazol-3-yl)-3-{4-[7-(4-ethyl-piperazine-1-carbonyl)-imidazo[2,1-b][1,3]benzothiazol-2-yl]-phenyl}-urea hydrochloride]: the Kd was below 10 nM in experiment [1] (setting [5]), 10 to 100 nM in experiment [2] and below 10 nM in experiment [3]. In addition, in experiment [4] (MV4-11, 72 h, read-out: Cellular Assay MV-proliferation IC50 (nM)), the IC50 was below 10 nM.

As for `CCOC(=O)CCc1ccc2c(c1)sc1nc(-c3ccc(NC(=O)Nc4cc(C(C)(C)C)on4)cc3)cn12` [Compound C3, Ethyl 3-{2-[4-({[(5-tert-Butylisoxazol-3-yl)amino]carbonyl}amino)phenyl]imidazo[2,1-b][1,3]benzothiazol-7-yl}propanoate], the results for the Kd in experiment [1], in experiment [2] and in experiment [3] were below 10 nM, above 1000 nM and 10 to 100 nM, respectively. Moreover, in experiment [4] (setting [6]), the IC50 was below 10 nM.

Consider `CCN(CC)C(=O)CCc1ccc2c(c1)sc1nc(-c3ccc(NC(=O)Nc4cc(C(C)(C)C)on4)cc3)cn12` [Compound C8, 3-(2-{4-[3-(5-tert-butyl-isoxazol-3-yl)-ureido]-phenyl}-benzo[d]imidazo[2,1-b]thiazol-7-yl)-N,N-diethyl-propionamide], for which the Kd in experiment [1] was below 10 nM; in experiment [2], 10 to 100 nM; in experiment [3], below 10 nM. Further, the IC50 in experiment [4] (setting [6]) is below 10 nM.

For the compound `CC(C)(C)c1cc(NC(=O)Nc2ccc(-c3cn4c(n3)sc3cc(CN5CCOCC5)ccc34)cc2)no1` [Compound D8, 1-(5-tert-Butyl-isoxazol-3-yl)-3-[4-(7-morpholin-4-ylmethyl-imidazo[2,1-b][1,3]benzothiazol-2-yl)-phenyl]-urea hydrochloride], the Kd in experiment [1] was below 10 nM; in experiment [2] it was 10 to 100 nM; in experiment [3], below 10 nM. Besides, the IC50 in experiment [4] (setting [6]) is below 10 nM.

Regarding `CC(C)(C)c1cc(NC(=O)Nc2ccc(-c3cn4c(n3)sc3cc(CCCN5CCCCC5)ccc34)cc2)no1` [Compound D4, N-(5-tert-Butyl-isoxazol-3-yl)-N′-{4-[7-(3-piperidin-1-yl-propyl)imidazo[2,1-b][1,3]benzothiazol-2-yl]phenyl}urea hydrochloride], the Kd is below 10 nM in experiment [1], 10 to 100 nM in experiment [2] and 10 to 100 nM in experiment [3]. Further, the IC50 in experiment [4] (setting [6]) is below 10 nM.

With `CC(C)(C)c1cc(NC(=O)Nc2ccc(-c3cn4c(n3)sc3cc(C(=O)N5CCNCC5)ccc34)cc2)no1` [Compound C24, 1-(5-tert-butyl-isoxazol-3-yl)-3-{4-[7-(piperazine-1-carbonyl)-imidazo[2,1-b][1,3]benzothiazol-2-yl]-phenyl}-urea hydrochloride], the values for the Kd in experiment [1], in experiment [2] and in experiment [3] were below 10 nM, 10 to 100 nM and below 10 nM, respectively. Further, in experiment [4] (setting [6]), the IC50 is below 10 nM.

`CC(C)(C)c1cc(NC(=O)Nc2ccc(-c3cn4c(n3)sc3cc(OCCCN5CCN(S(C)(=O)=O)CC5)ccc34)cc2)no1` [Compound B10, 1-(5-tert-butyl-isoxazol-3-yl)-3-(4-{7-[3-(4-methanesulfonyl-piperazin-1-yl)-propoxy]-benzo[d]imidazo[2,1-b]thiazol-2-yl}-phenyl)-urea]: the results for the Kd in experiment [1] (setting [5]), in experiment [2] and in experiment [3] were below 10 nM, 10 to 100 nM and 10 to 100 nM, respectively. Further, in experiment [4] (setting [6]), the IC50 is below 10 nM.
